How the values were obtained:
[1] = xn = mol fraction of the nth substance listed; details: 101.32 kPa, Liquid, Vibrating tube method
[2] = excess molar enthalpy (molar enthalpy of mixing); xn = mol fraction of the nth substance listed; details: 101 kPa, Liquid, Calvet calorimetry

CCCCCCCC [octane] + CCOC(C)=O
Details	excess molar enthalpy [kcal/mol]	mass density [kg/m3]
[1], 291.15 K, x2 = 0	–	704.13
[1], 291.15 K, x2 = 0.0296	–	707.15
[1], 291.15 K, x2 = 0.0628	–	710.48
[1], 291.15 K, x2 = 0.1163	–	716.36
[1], 291.15 K, x2 = 0.1605	–	721.46
[1], 291.15 K, x2 = 0.2056	–	727.01
[1], 291.15 K, x2 = 0.2901	–	738.23
[1], 291.15 K, x2 = 0.3723	–	750.35
[1], 291.15 K, x2 = 0.4427	–	761.76
[1], 291.15 K, x2 = 0.5131	–	774.24
[1], 291.15 K, x2 = 0.5744	–	785.94
[1], 291.15 K, x2 = 0.6332	–	798.14
[1], 291.15 K, x2 = 0.6886	–	810.54
[1], 291.15 K, x2 = 0.7414	–	823.25
[1], 291.15 K, x2 = 0.7945	–	836.98
[1], 291.15 K, x2 = 0.84	–	849.83
[1], 291.15 K, x2 = 0.895	–	866.53
[1], 291.15 K, x2 = 0.9304	–	878.05
[1], 291.15 K, x2 = 0.9523	–	885.46
[1], 298.15 K, x2 = 0	–	698.6
[1], 298.15 K, x2 = 0.0485	–	703.3
[1], 298.15 K, x2 = 0.0998	–	708.8
[1], 298.15 K, x2 = 0.1711	–	716.9
[1], 298.15 K, x2 = 0.2518	–	727.02
[1], 298.15 K, x2 = 0.3198	–	736.29
[1], 298.15 K, x2 = 0.3814	–	745.42
[1], 298.15 K, x2 = 0.4622	–	758.48
[1], 298.15 K, x2 = 0.4977	–	764.69
[1], 298.15 K, x2 = 0.5598	–	776.23
[1], 298.15 K, x2 = 0.6548	–	795.8
[1], 298.15 K, x2 = 0.6729	–	799.8
[1], 298.15 K, x2 = 0.6865	–	802.9
[1], 298.15 K, x2 = 0.755	–	819.2
[1], 298.15 K, x2 = 0.7913	–	828.6
[1], 298.15 K, x2 = 0.8335	–	840.2
[1], 298.15 K, x2 = 0.8686	–	850.5
[1], 298.15 K, x2 = 0.9039	–	861.4
[1], 298.15 K, x2 = 0.9578	–	879.3
[1], 318.15 K, x2 = 0	–	682.16
[1], 318.15 K, x2 = 0.034	–	685.37
[1], 318.15 K, x2 = 0.108	–	692.6
[1], 318.15 K, x2 = 0.1961	–	702.19
[1], 318.15 K, x2 = 0.2859	–	713.24
[1], 318.15 K, x2 = 0.3635	–	723.8
[1], 318.15 K, x2 = 0.4203	–	732.23
[1], 318.15 K, x2 = 0.4875	–	743.04
[1], 318.15 K, x2 = 0.5678	–	757.24
[1], 318.15 K, x2 = 0.6088	–	765.1
[1], 318.15 K, x2 = 0.6633	–	776.23
[1], 318.15 K, x2 = 0.7123	–	786.92
[1], 318.15 K, x2 = 0.764	–	799.14
[1], 318.15 K, x2 = 0.8086	–	810.54
[1], 318.15 K, x2 = 0.8487	–	821.51
[1], 318.15 K, x2 = 0.8943	–	834.53
[1], 318.15 K, x2 = 0.932	–	846.34
[1], 318.15 K, x2 = 0.9762	–	860.93
[1], 328.15 K, x2 = 0	–	674.15
[1], 328.15 K, x2 = 0.0441	–	678
[1], 328.15 K, x2 = 0.1138	–	684.7
[1], 328.15 K, x2 = 0.2084	–	694.85
[1], 328.15 K, x2 = 0.2915	–	704.8
[1], 328.15 K, x2 = 0.3741	–	715.9
[1], 328.15 K, x2 = 0.4415	–	725.91
[1], 328.15 K, x2 = 0.5234	–	739.31
[1], 328.15 K, x2 = 0.5735	–	748.22
[1], 328.15 K, x2 = 0.6354	–	760.07
[1], 328.15 K, x2 = 0.6861	–	770.65
[1], 328.15 K, x2 = 0.7435	–	783.45
[1], 328.15 K, x2 = 0.7958	–	796.07
[1], 328.15 K, x2 = 0.8407	–	807.86
[1], 328.15 K, x2 = 0.8822	–	819.28
[1], 328.15 K, x2 = 0.927	–	832.83
[1], 328.15 K, x2 = 0.9737	–	848.01
[2], 291.15 K, x2 = 0.0994	0.146	–
[2], 291.15 K, x2 = 0.1715	0.23	–
[2], 291.15 K, x2 = 0.254	0.303	–
[2], 291.15 K, x2 = 0.3369	0.355	–
[2], 291.15 K, x2 = 0.4081	0.383	–
[2], 291.15 K, x2 = 0.474	0.399	–
[2], 291.15 K, x2 = 0.5317	0.4	–
[2], 291.15 K, x2 = 0.5698	0.392	–
[2], 291.15 K, x2 = 0.5955	0.386	–
[2], 291.15 K, x2 = 0.6441	0.371	–
[2], 291.15 K, x2 = 0.6953	0.344	–
[2], 291.15 K, x2 = 0.7435	0.313	–
[2], 291.15 K, x2 = 0.7996	0.272	–
[2], 291.15 K, x2 = 0.853	0.226	–
[2], 291.15 K, x2 = 0.8967	0.176	–
[2], 291.15 K, x2 = 0.9435	0.118	–
[2], 291.15 K, x2 = 0.981	0.0581	–
[2], 298.15 K, x2 = 0.0774	0.102	–
[2], 298.15 K, x2 = 0.1517	0.178	–
[2], 298.15 K, x2 = 0.2198	0.243	–
[2], 298.15 K, x2 = 0.2861	0.293	–
[2], 298.15 K, x2 = 0.3374	0.326	–
[2], 298.15 K, x2 = 0.3769	0.352	–
[2], 298.15 K, x2 = 0.4335	0.377	–
[2], 298.15 K, x2 = 0.4856	0.384	–
[2], 298.15 K, x2 = 0.5281	0.383	–
[2], 298.15 K, x2 = 0.5773	0.38	–
[2], 298.15 K, x2 = 0.6255	0.371	–
[2], 298.15 K, x2 = 0.6736	0.351	–
[2], 298.15 K, x2 = 0.7261	0.325	–
[2], 298.15 K, x2 = 0.7729	0.292	–
[2], 298.15 K, x2 = 0.8276	0.246	–
[2], 298.15 K, x2 = 0.8796	0.191	–
[2], 298.15 K, x2 = 0.9202	0.129	–
[2], 298.15 K, x2 = 0.9644	0.0648	–
[2], 318.15 K, x2 = 0.0832	0.111	–
[2], 318.15 K, x2 = 0.1591	0.195	–
[2], 318.15 K, x2 = 0.2322	0.267	–
[2], 318.15 K, x2 = 0.3009	0.319	–
[2], 318.15 K, x2 = 0.3637	0.353	–
[2], 318.15 K, x2 = 0.4184	0.374	–
[2], 318.15 K, x2 = 0.4655	0.384	–
[2], 318.15 K, x2 = 0.5112	0.388	–
[2], 318.15 K, x2 = 0.5525	0.386	–
[2], 318.15 K, x2 = 0.5886	0.382	–
[2], 318.15 K, x2 = 0.6324	0.371	–
[2], 318.15 K, x2 = 0.6807	0.355	–
[2], 318.15 K, x2 = 0.7307	0.328	–
[2], 318.15 K, x2 = 0.7788	0.293	–
[2], 318.15 K, x2 = 0.8291	0.248	–
[2], 318.15 K, x2 = 0.8801	0.192	–
[2], 318.15 K, x2 = 0.9259	0.13	–
[2], 318.15 K, x2 = 0.9646	0.0667	–

Reference: the NIST ThermoML archive (doi:10.1021/je100832h)
